These results are taken from patent US9365522B2, “Pyrazole amide derivative” (AMGEN INC., priority 2015, dated 2016).

The structures appear in SMILES notation.

For this experiment, the target named is T1, ligand binding domain of human ROR gamma (Homo sapiens, UniProt P51449).
T1 construct: NM_001001523; expressed in transfected cells; host or cells: HEK293T
T1 sequence (P51449 247-497 isoform P51449-2): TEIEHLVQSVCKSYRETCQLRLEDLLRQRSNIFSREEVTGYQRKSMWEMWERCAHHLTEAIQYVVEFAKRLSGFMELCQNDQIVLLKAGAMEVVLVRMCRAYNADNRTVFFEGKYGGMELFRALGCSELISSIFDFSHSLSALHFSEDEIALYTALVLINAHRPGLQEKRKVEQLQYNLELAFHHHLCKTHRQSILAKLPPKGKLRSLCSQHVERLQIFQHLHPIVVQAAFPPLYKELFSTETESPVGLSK
Nature of the experiment: ROR gamma reporter gene assay (GAL4-RORγ LBD luciferase, Dual-Glo). The settings on record: HEK293T cells transfected with pM-ROR gamma, 8 concentrations 3.5 nM to 10.5 μM, 24 h incubation; read-out: result (pIC50, inhibition of RORγ transcriptional activity) (converted). Format: cell-based. The method in brief:
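Inhibition of RORγ-driven transcription was measured in HEK293T cells expressing a GAL4 fusion of the human RORγ LBD (aa 247-497), with renilla luciferase as internal control. Cells in 10% charcoal-stripped serum received compound (3.5 nM–10.5 μM) for 24 h.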
(In general: In a reporter assay the amount or activity of a reporter protein is the signal.)
As for `CC1(C)[C@@H]2C[C@H](N(C[C@@H](O)c3ccccc3Cl)C(=O)c3cnn([C@H]4CC[C@](C)(C(=O)O)CC4)c3C(F)(F)F)C[C@@H]21` [Example 369, trans-4-(4-((2-(2-chlorophenyl)-2-hydroxyethyl)((1R,3r,5S)-6,6-dimethylbicyclo[3.1.0]hexan-3-yl)carbamoyl)-5-(trifluoromethyl)-1H-pyrazol-yl)-1-methylcyclohexanecarboxylic acid], the IC50 was 1.23e+06 pM.

In the case of `COc1ccccc1[C@@H](O)CN(C(=O)c1cnn([C@H]2CC[C@](C)(C(=O)O)CC2)c1C(F)(F)F)[C@H]1C[C@@H]2[C@H](C1)C2(C)C` [Example 370, trans-4-(4-(((1R,3r,5S)-6,6-dimethylbicyclo[3.1.0]hexan-3-yl)(2-hydroxy-2-(2-methoxyphenyl)ethyl)carbamoyl)-5-(trifluoromethyl)-1H-pyrazoH-yl)-1-methylcyclohexanecarboxylic acid], the IC50 was 537000 pM.

With `COc1ccccc1[C@H](O)CN(C(=O)c1cnn([C@H]2CC[C@](C)(C(=O)O)CC2)c1C(F)(F)F)[C@H]1C[C@@H]2[C@H](C1)C2(C)C` [Example 371, trans-4-(4-(((1R,3r,5S)-6,6-dimethylbicyclo[3.1.0]hexan-3-yl)(2-hydroxy-2-(2-methoxyphenyl)ethyl)carbamoyl)-5-(trifluoromethyl)-1H-pyrazol-1-yl)-1-methylcyclohexanecarboxylic acid], the IC50 is 5.37e+06 pM.

Turning to `CC1(C)[C@@H]2C[C@H](N(C[C@H](O)c3ccccc3C(F)(F)F)C(=O)c3cnn([C@H]4CC[C@](C)(C(=O)O)CC4)c3C(F)(F)F)C[C@@H]21` [Example 372, trans-4-(4-(((1R,3r,5S)-6,6-dimethylbicyclo[3.1.0]hexan-3-yl)(2-hydroxy-2-(2-(trifluoromethyl)phenyl)ethyl)carbamoyl)-5-(trifluoromethyl)-1H-pyrazol-1-yl)-1-methylcyclohexanecarboxylic acid], the IC50 is 331000 pM.

For `CC1(C)[C@@H]2C[C@H](N(C[C@@H](O)c3ccccc3C(F)(F)F)C(=O)c3cnn([C@H]4CC[C@](C)(C(=O)O)CC4)c3C(F)(F)F)C[C@@H]21` [Example 373, trans-4-(4-(((1R,3r,5S)-6,6-dimethylbicyclo[3.1.0]hexan-3-yl)(2-hydroxy-2-(2-(trifluoromethyl)phenyl)ethyl)carbamoyl)-5-(trifluoromethyl)-1H-pyrazol-1-yl)-1-methylcyclohexanecarboxylic acid], the IC50 is 3.39e+06 pM.

Regarding `COc1cccc(Cl)c1[C@@H](O)CN(C(=O)c1cnn([C@H]2CC[C@](C)(C(=O)O)CC2)c1Cl)[C@H]1C[C@@H]2[C@H](C1)C2(C)C` [Example 374, trans-4-(5-chloro-4-((2-(2-chloro-6-methoxyphenyl)-2-hydroxyethyl)((1R,3r,5S)-6,6-dimethylbicydo[3.1.0]hexan-3-yl)carbamoyl)-1H-pyrazol-1-yl)-1-methylcyclohexanecarboxylic acid], the IC50 is 661000 pM.

`COc1cccc(Cl)c1[C@H](O)CN(C(=O)c1cnn([C@H]2CC[C@](C)(C(=O)O)CC2)c1Cl)[C@H]1C[C@@H]2[C@H](C1)C2(C)C` [Example 375, trans-4-(5-chloro-4-((2-(2-chloro-6-methoxyphenyl)-2-hydroxyethyl)((1R,3r,5S)-6,6-dimethylbicydo[3.1.0]hexan-3-yl)carbamoyl)-1H-pyrazol-1-yl)-1-methylcyclohexanecarboxylic acid]: the IC50 was 107000 pM.

`CC1(C)[C@@H]2C[C@H](N(CCc3n[nH]c4cccc(Cl)c34)C(=O)c3cnn([C@H]4CC[C@](C)(C(=O)O)CC4)c3C(F)(F)F)C[C@@H]21` [Example 376, trans-4-(4-((2-(4-chloro-1H -indazol-3-yl)ethyl)((1R,3r,5S)-6,6-dimethylbicyclo[3.1.0]hexan-3-yl)carbamoyl)-5-(trifluoromethyl)-1H-pyrazol-1-yl)-1-methylcyclohexanecarboxylic acid]: the IC50 was 309000 pM.

`CC(CN(C(=O)c1cnn([C@H]2CC[C@](C)(C(=O)O)CC2)c1C(F)(F)F)[C@H]1C[C@@H]2[C@H](C1)C2(C)C)c1c[nH]c2cccc(Cl)c12` (stereo partly drawn) [Example 377, trans-4-(4-((2-(4-chloro-1H-indol-3-yl)propyl)((1R,3r,5S)-6,6-dimethylbicyclo[3.1.0]hexan-3-yl)carbamoyl)-5-(trifluoromethyl)-1H-pyrazol-1-yl)-1-methylcyclohexanecarboxylic acid]: the IC50 is 437000 pM.

`CC1(CN(CC(=O)c2c(Cl)cncc2Cl)C(=O)c2cnn([C@H]3CC[C@](C)(C(=O)O)CC3)c2Cl)CC1` [Example 378, trans-4-(5-chloro-4-((2-(3,5-dichloropyridin-4-yl)-2-oxoethyl)-((1-methylcyclopropyl)methyl)carbamoyl)pyrazol-1-yl)-1-methylcyclohexane-1-carboxylic acid]: the IC50 was 74100 pM.

On to `Cc1cncc(Cl)c1C(=O)CN(CC(C)(C)C)C(=O)c1cnn([C@H]2CC[C@](C)(C(=O)O)CC2)c1C(F)(F)F` [Example 379, trans-4-(4-((2-(3-chloro-5-methylpyridin-4-yl)-2-oxoethyl)-(2,2-dimethylpropyl)carbamoyl)-5-(trifluoromethyl)pyrazol-1-yl)-1-methylcyclohexane-1-carboxylic acid], for which the IC50 was 79400 pM.

With `CC1(C)[C@@H]2C[C@H](N(CCc3c[nH]c4cncc(Cl)c34)C(=O)c3cnn([C@H]4CC[C@](C)(C(=O)O)CC4)c3C(F)(F)F)C[C@@H]21` [Example 380, trans-4-(4-((2-(4-chloro-1H -pyrrolo(2,3-c)pyridin-3-yl)ethyl)((1R,3r,5S)-6,6-dimethylbicyclo[3.1.0]hexan-3-yl)carbamoyl)-5-(trifluoromethyl)-1H-pyrazol-1-yl)-1-methylcyclohexanecarboxylic acid], the IC50 is 83200 pM.

Take `CC1(C)CC(CN(CC(=O)c2c(Cl)cncc2Cl)C(=O)c2cnn([C@H]3CC[C@](C)(C(=O)O)CC3)c2Cl)C1` [Example 381, trans-4-(5-chloro-4-((2-(3,5-dichloropyridin-4-yl)-2-oxoethyl)-((3,3-dimethylcyclobutyl)methyl)carbamoyl)pyrazol-1-yl)-1-methylcyclohexane-1-carboxylic acid]: the IC50 is 100000 pM.

Consider `Cc1c(C(=O)N(CC(=O)c2c(Cl)cncc2Cl)CC2CC(C)(C)C2)cnn1[C@H]1CC[C@](C)(C(=O)O)CC1` [Example 382, trans-4-(4-((2-(3,5-dichloropyridin-4-yl)-2-oxoethyl)-((3,3-dimethylcyclobutyl)methyl)carbamoyl)-5-methylpyrazol-1-yl)-1-methylcyclohexane-1-carboxylic acid], for which the IC50 is 257000 pM.

`CC1(C)[C@@H]2C[C@H](N(C[C@H](O)c3c(F)cncc3Cl)C(=O)c3cnn([C@H]4CC[C@](C)(C(=O)O)CC4)c3C(F)(F)F)C[C@@H]21` [Example 383, trans-4-(4-((2-(3-chloro-5-fluoropyridin-4-yl)-2-hydroxyethyl)((1R,3r,5S)-6,6-dimethylbicyclo[3.1.0]hexan-3-yl)carbamoyl)-5-(trifluoromethyl)-1H-pyrazol-1-yl)-1-methylcyclohexanecarboxylic acid]: the IC50 was 39800 pM.

For the compound `CC1(C)[C@@H]2C[C@H](N(C[C@@H](O)c3c(F)cncc3Cl)C(=O)c3cnn([C@H]4CC[C@](C)(C(=O)O)CC4)c3C(F)(F)F)C[C@@H]21` [Example 384, trans-4-(4-((2-(3-chloro-5-fluoropyridin-4-yl)-2-hydroxyethyl)((1R,3r,5S)-6,6-dimethylbicyclo[3.1.0]hexan-3-yl)carbamoyl)-5-(trifluoromethyl)-1H-pyrazol-1-yl)-1-methylcyclohexanecarboxylic acid], the IC50 is 347000 pM.

Regarding `CC1(C)[C@@H]2C[C@H](N(CC(=O)c3c(Cl)cccc3Cl)C(=O)c3cnn([C@H]4CC[C@](C)(C(=O)O)CC4)c3C3CC3)C[C@@H]21` [Example 385, trans-4-(5-cyclopropyl-4-((2-(2,6-dichlorophenyl)-2-oxoethyl)((1R,3r,5S)-6,6-dimethylbicyclo[3.1.0]hexan-3-yl)carbamoyl)-1H-pyrazol-1-yl)-1-methylcyclohexanecarboxylic acid], the IC50 was 18600 pM.

For the compound `CC12CCC(CN(CC(=O)c3c(Cl)cncc3Cl)C(=O)c3cnn([C@H]4CC[C@](C)(C(=O)O)CC4)c3Cl)(CC1)O2` [Example 386, trans-4-(5-chloro-4-((2-(3,5-dichloropyridin-4-yl)-2-oxoethyl)-((1-methyl-7-oxabicyclo[2.2.1]heptan-4-yl)methyl)carbamoyl)pyrazol-1-yl)-1-methylcyclohexane-1-carboxylic acid], the IC50 was 141000 pM.

Consider `Cc1cncc(Cl)c1C(=O)CN(C(=O)c1cnn([C@H]2CC[C@](C)(C(=O)O)CC2)c1C(F)(F)F)[C@H]1C[C@@H]2[C@H](C1)C2(C)C` [Example 387, trans-4-(4-((2-(3-chloro-5-methylpyridin-4-yl)-2-oxoethyl)((1R,3r,5S)-6,6-dimethylbicyclo[3.1.0]hexan-3-yl)carbamoyl)-5-{trifluoromethyl)-1H-pyrazol-1-yl)-1-methylcyclohexanecarboxylic acid], for which the IC50 was 69200 pM.
